Measured values reported in patent publication US10093623B2, “Cyclic amides as MetAP-2 inhibitors” (MERCK PATENT GmbH, priority 2012, dated 2018).

Molecular target: MetAP-2 (Homo sapiens, UniProt P50579)
Assay: MetAP-2 activity measurement (coupled enzymatic reactions, Met-Arg-Ser substrate, dianisidine detection at 450 nm)
Assay type: biochemical
Conditions: Inhibition of MetAP-2; read-out: IC50 enzyme
How it was run: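 Coupled continuous assay with Met-Arg-Ser tripeptide substrate: released methionine oxidised by L-amino acid oxidase to give H2O2, which peroxidase uses to oxidise dianisidine, followed at 450 nm. Activity taken as slope of absorbance versus time over the visually linear region; dianisidine extinction coefficient converts to mol Met per time.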

MetAP-2, sequence (P50579 whole entry, species assumed): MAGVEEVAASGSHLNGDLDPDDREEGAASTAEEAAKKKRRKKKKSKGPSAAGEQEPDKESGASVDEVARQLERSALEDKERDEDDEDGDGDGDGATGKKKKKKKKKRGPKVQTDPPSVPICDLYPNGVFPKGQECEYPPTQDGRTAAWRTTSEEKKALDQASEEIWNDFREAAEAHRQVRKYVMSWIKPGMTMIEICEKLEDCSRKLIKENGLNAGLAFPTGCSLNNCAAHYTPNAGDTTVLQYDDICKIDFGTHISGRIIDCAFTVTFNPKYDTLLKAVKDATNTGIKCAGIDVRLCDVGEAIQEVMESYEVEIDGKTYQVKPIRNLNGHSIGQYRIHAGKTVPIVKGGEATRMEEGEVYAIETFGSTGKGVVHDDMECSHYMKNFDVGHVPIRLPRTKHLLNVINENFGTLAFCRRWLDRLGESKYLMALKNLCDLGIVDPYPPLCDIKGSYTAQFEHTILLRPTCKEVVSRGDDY

| IC50 | Structure (SMILES) |
| --- | --- |
| > 10000 nM | O=C1NCCc2cc(N3CC[C@@](O)(C(=O)NCc4cc(F)cc(Cl)c4)C3=O)ccc21 [A105, N-(3-Chloro-5-fluorobenzyl)-(R)-3-hydroxy-2-oxo-1-(1-oxo-1,2,3,4-tetrahydroisoquinolin-6-yl)pyrrolidine-3-carboxamide] |
| 10 to 1000 nM | N#Cc1c[nH]c2ccc(N3CCC(O)(C(=O)NCc4cc(F)cc(Cl)c4)C3=O)cc12 (stereo not shown) [A87, N-(3-Chloro-5-fluorobenzyl)-1-(3-cyano-1H-indol-5-yl)-3-hydroxy-2-oxopyrrolidine-3-carboxamide] |
| 10 to 1000 nM | CC(C)NC(=O)c1cc2cc(N3CC[C@](O)(C(=O)NCc4cc(F)cc(Cl)c4)C3=O)ccc2[nH]1 [B97, N-Isopropyl-5-[(S)-3-(3-chloro-5-fluorobenzylcarbamoyl)-3-hydroxy-2-oxopyrrolidin-1-yl]-1H-indole-2-carboxamide] |
| 1000 to 10000 nM | Cc1cc2cc(N3CC[C@@](O)(C(=O)NCc4cc(F)cc(Cl)c4)C3=O)cnc2[nH]1 [B61, N-(3-Chloro-5-fluorobenzyl)-(R)-3-hydroxy-1-(2-methyl-1H-pyrrolo[2,3-b]pyridin-5-yl)-2-oxo-pyrrolidine-3-carboxamide] |
| 10 to 1000 nM | CC(=O)NS(=O)(=O)c1ccc(N2CCC(O)(C(=O)NCc3cc(F)cc(Cl)c3)C2=O)cc1 (stereo not shown) [B118, N-(3-Chloro-5-fluorobenzyl)-1-(4-acetylsulfamoylphenyl)-3-hydroxy-2-oxopyrrolidine-3-carboxamide] |
| 1000 to 10000 nM | CS(=O)(=O)N1CC[C@H](N2CCC(O)(C(=O)NCc3cc(F)cc(Cl)c3)C2=O)C1 (stereo partly drawn) [A281, N-(3-Chloro-5-fluorobenzyl)-(S)-3-hydroxy-1′-methanesulfonyl-2-oxo[1,3′]bipyrrolidinyl-3-carboxamide] |
| > 10000 nM | O=C(NCc1cc(F)cc(Cl)c1)[C@]1(O)CCCCN(c2ccccc2)C1=O [A67, N-(3-chloro-5-fluorobenzyl)-(R)-3-hydroxy-2-oxo-1-phenylazepane-3-carboxamide] |
| 10 to 1000 nM | O=C1CCc2cc(N3CCC(O)(C(=O)NCCc4cccc(F)c4)C3=O)ccc2N1 (stereo not shown) [A183, N-[2-(3-Fluorophenyl)ethyl]-3-hydroxy-2-oxo-1-(2-oxo-1,2,3,4-tetrahydroquinolin-6-yl)-pyrrolidine-3-carboxamide] |
| 1000 to 10000 nM | O=C(NCc1cc(F)cc(F)c1)C1(O)CCCN(CC2CCC2)C1=O (stereo not shown) [A252, N-(3,5-Difluorobenzyl)-1-cyclobutylmethyl-3-hydroxy-2-oxopiperidine-3-carboxamide] |
| 10 to 1000 nM | O=C(NCc1cccc(F)c1Cl)C1(O)CCN(c2ccc3[nH]ccc3c2)C1=O (stereo not shown) [A206, N-(2-Chloro-3-fluorobenzyl)-3-hydroxy-1-(1H-indol-5-yl)-2-oxo-pyrrolidine-3-carboxamide] |
| 10 to 1000 nM | O=C1N(CC2CCCCC2)CCCC1(O)CNCc1cc(F)cc(Cl)c1 (stereo not shown) [B18, 3-[(3-Chloro-5-fluorobenzylamino)methyl]-1-cyclohexylmethyl-3-hydroxy-piperidin-2-one] |
| 1000 to 10000 nM | CS(=O)(=O)N1CC[C@@H](N2CCC(O)(C(=O)NCc3cc(F)cc(Cl)c3)C2=O)C1 (stereo partly drawn) [A292, N-(3-Chloro-5-fluorobenzyl)-(R)-3-hydroxy-1′-methanesulfonyl-2-oxo[1,3′]bipyrrolidinyl-3-carboxamide] |
| > 10000 nM | C=C(Cc1ccccc1)C(=O)[C@@]1(O)CCN(c2ccccc2)C1=O [A110, (S)-3-(2-Benzylacryloyl)-3-hydroxy-1-phenylpyrrolidin-2-one] |
| > 10000 nM | O=C(c1cccc(N2CC[C@@](O)(C(=O)NCc3cc(F)cc(Cl)c3)C2=O)c1)N1CCCCC1 [A104, N-(3-Chloro-5-fluorobenzyl)-(R)-3-hydroxy-2-oxo-1-[3-(piperidin-1-carbonyl)phenyl]pyrrolidine-3-carboxamide] |
| 1000 to 10000 nM | O=C(NCc1cc(F)cc(Cl)c1)C1(O)CCN(C[C@H]2CC[C@H](C(=O)O)CC2)C1=O (stereo partly shown) [A273, 4-[3-(3-Chloro-5-fluorobenzylcarbamoyl)-3-hydroxy-2-oxopyrrolidin-1-yl-methyl]cyclohexanecarboxylic acid] |
| > 10000 nM | CN(C)C(=O)c1cc2cc(N3CC[C@@](O)(C(=O)NCc4cc(F)cc(Cl)c4)C3=O)ccc2[nH]1 [B90, N,N-Dimethyl-5-[(R)-3-(3-chloro-5-fluorobenzylcarbamoyl)-3-hydroxy-2-oxopyrrolidin-1-yl]-1H-indole-2-carboxamide] |
| 10 to 1000 nM | O=C1NCCc2ccc(N3CCC(O)(C(=O)NCc4cc(F)cc(Cl)c4)C3=O)cc21 (stereo not shown) [A115, N-(3-Chloro-5-fluorobenzyl)-3-hydroxy-2-oxo-1-(1-oxo-1,2,3,4-tetrahydroisoquinolin-7-yl)-pyrrolidine-3-carboxamide] |
| > 10000 nM | O=C(NC1CCC1)c1cccc(N2CC[C@@](O)(C(=O)NCc3cc(F)cc(Cl)c3)C2=O)c1 [A164, N-(3-Chloro-5-fluorobenzyl)-(R)-1-(3-cyclobutylcarbamoyl-phenyl)-3-hydroxy-2-oxo-pyrrolidine-3-carboxamide] |
| > 10000 nM | O=C(NCc1cc(F)cc(Cl)c1)[C@]1(O)CCCN(Cc2ccccc2)C1=O [A86, N-(3-Chloro-5-fluorobenzyl)-(R)-1-benzyl-3-hydroxy-2-oxo-piperidine-3-carboxamide] |

| IC50 | Structure (SMILES) |
| --- | --- |
| 10 to 1000 nM | O=C1CCc2cc(N3CC[C@](O)(C(=O)NCCc4ccccc4F)C3=O)ccc2N1 [B5, N-[2-(2-Fluorophenyl)ethyl]-(S)-3-hydroxy-2-oxo-1-(2-oxo-1,2,3,4-tetrahydroquinolin-6-yl)-pyrrolidine-3-carboxamide] |
| 1000 to 10000 nM | O=C1N(c2ccccc2)CCC1(O)CNCc1cccc(F)c1 (stereo not shown) [B48, 3-[(3-Fluorobenzylamino)-methyl]-3-hydroxy-1-phenyl-pyrrolidin-2-one] |
| 1000 to 10000 nM | CCS(=O)(=O)Nc1cccc(N2CC[C@@](O)(C(=O)NCc3cc(F)cc(Cl)c3)C2=O)c1 [A84, N-(3-Chloro-5-fluorobenzyl)-(R)-1-(3-ethanesulfonylaminophenyl)-3-hydroxy-2-oxopyrrolidine-3-carboxamide] |
| 10 to 1000 nM | NC(=O)c1cccc(N2CCC(O)(C(=O)NCCc3ccccc3C(F)(F)F)C2=O)c1 (stereo not shown) [A144, N-[2-(2-Trifluoromethylphenyl)-ethyl]-1-(3-carbamoylphenyl)-3-hydroxy-2-oxopyrrolidine-3-carboxamide] |
| 10 to 1000 nM | CC1CCC(N2CCC(O)(C(=O)NCc3cc(F)cc(Cl)c3)C2=O)CC1 (stereo not shown) [A293, N-(3-Chloro-5-fluorobenzyl)-3-hydroxy-1-(4-methylcyclohexyl)-2-oxopyrrolidine-3-carboxamide] |
| 1000 to 10000 nM | CCS(=O)(=O)N[C@H]1CC[C@H](N2CCC(O)(C(=O)NCc3cc(F)cc(Cl)c3)C2=O)CC1 (stereo partly shown) [A124, N-(3-Chloro-5-fluorobenzyl)-1-(4-ethanesulfonylamino-cyclohexyl)-3-hydroxy-2-oxo-pyrrolidine-3-carboxamide] |
| 10 to 1000 nM | O=C1CCc2cc(CN3CCC(O)(C(=O)NCc4cc(F)cc(Cl)c4)C3=O)ccc2N1 (stereo not shown) [B69, N-(3-Chloro-5-fluorobenzyl)-3-hydroxy-2-oxo-1-(2-oxo-1,2,3,4-tetrahydroquinolin-6-ylmethyl)-pyrrolidine-3-carboxamide] |
| 10 to 1000 nM | O=C1CCc2cc(N3CC[C@](O)(C(=O)NCc4c(F)cc(F)cc4F)C3=O)ccc2N1 [A236, N-(2,4,6-Trifluorobenzyl)-(S)-3-hydroxy-2-oxo-1-(2-oxo-1,2,3,4-tetrahydroquinolin-6-yl)-pyrrolidine-3-carboxamide] |
| 10 to 1000 nM | O=C(c1cccc(N2CC[C@](O)(C(=O)NCc3cc(F)cc(Cl)c3)C2=O)c1)N1CCCCC1 [A95, N-(3-Chloro-5-fluorobenzyl)-(S)-3-hydroxy-2-oxo-1-[3-(piperidin-1-carbonyl)phenyl]pyrrolidine-3-carboxamide] |
| 1000 to 10000 nM | O=C(NCc1cc(F)cc(Cl)c1)C1(O)CCN(Cc2nc3ccccc3[nH]2)C1=O (stereo not shown) [A269, N-(3-chloro-5-fluorobenzyl)-1-(1H-benzimidazol-2-ylmethyl)-3-hydroxy-2-oxopyrrolidine-3-carboxamide] |
| 10 to 1000 nM | CC(=O)Nc1ccc(N2CCC(O)(C(=O)NCc3cccc(F)c3Cl)C2=O)cn1 (stereo not shown) [A186, N-(2-Chloro-3-fluorobenzyl)-1-(6-acetylaminopyridin-3-yl)-3-hydroxy-2-oxopyrrolidine-3-carboxamide] |
| 10 to 1000 nM | O=C1CCc2cc(N3CC[C@](O)(C(=O)NCc4ccc(Cl)cc4F)C3=O)ccc2N1 [A241, N-(4-Chloro-2-fluorobenzyl)-(S)-3-hydroxy-2-oxo-1-(2-oxo-1,2,3,4-tetrahydroquinolin-6-yl)-pyrrolidine-3-carboxamide] |
| 1000 to 10000 nM | CC(C)(C)OC(=O)N1C[C@@H]2[C@H](C1)[C@H]2N1CCC(O)(C(=O)NCc2cc(F)cc(Cl)c2)C1=O (stereo partly drawn) [A228, tert-Butyl (1S,5R,6S)-6-[3-(3-chloro-5-fluorobenzyl-carbamoyl)-3-hydroxy-2-oxo-pyrrolidin-1-yl]-3-azabicyclo-[3.1.0]hexane-3-carboxylate] |
| 10 to 1000 nM | O=C1CCc2cc(N3CC[C@](O)(C(=O)NCCc4cc(F)cc(F)c4)C3=O)ccc2N1 [A221, N-[2-(3,5-Difluorophenyl)ethyl]-(S)-3-hydroxy-2-oxo-1-(2-oxo-1,2,3,4-tetrahydroquinolin-6-yl)-pyrrolidine-3-carboxamide] |
| 10 to 1000 nM | CN(c1cccc(N2CCC(O)(C(=O)NCc3cc(F)cc(Cl)c3)C2=O)c1)S(C)(=O)=O (stereo not shown) [A73, N-(3-Chloro-5-fluorobenzyl)-3-hydroxy-1-[3-(methanesulfonyl-methylamino)phenyl]-2-oxo-pyrrolidine-3-carboxamide] |
| 1000 to 10000 nM | Cn1nccc1CN1CCC(O)(C(=O)NCc2cc(F)cc(Cl)c2)C1=O (stereo not shown) [A276, N-(3-Chloro-5-fluorobenzyl)-3-hydroxy-1-(2-methyl-2H-pyrazol-3-ylmethyl)-2-oxopyrrolidine-3-carboxamide] |
| > 10000 nM | C=C(Cc1ccccc1)C(=O)C1(O)CCN(c2ccccc2)C1=O (stereo not shown) [A89, 3-(2-benzylacryloyl)-3-hydroxy-1-phenylpyrrolidin-2-one] |
| > 10000 nM | O=C(NCc1cc(F)cc(Cl)c1)C1(O)CCN([C@@H]2CCNC2)C1=O (stereo partly drawn) [A131, N-(3-Chloro-5-fluorobenzyl)-(R)-3-hydroxy-2-oxo-[1,3′]bipyrrolidinyl-3-carboxamide] |
